Source: the NIST ThermoML archive (doi:10.1007/s10765-008-0535-5)
Numbers after ± are expanded uncertainties.

Assay: molar heat capacity at constant volume
Details: Liquid, Vacuum adiabatic calorimetry

FCF [difluoromethane]
Details	molar heat capacity at constant volume [J/K/mol]
268.15 K, 8268 kPa	49.47 ± 1.6
268.15 K, 8502 kPa	48.8 ± 1.6
269.15 K, 9280 kPa	49.32 ± 1.6
269.15 K, 9512 kPa	49.68 ± 1.6
270.15 K, 10291 kPa	49.47 ± 1.6
270.15 K, 10521 kPa	49.84 ± 1.6
271.15 K, 11302 kPa	49.42 ± 1.6
271.15 K, 11531 kPa	49.53 ± 1.6
272.15 K, 12312 kPa	49.94 ± 1.6
272.15 K, 12421 kPa	50.57 ± 1.6
272.15 K, 12540 kPa	49.06 ± 1.6
273.15 K, 13321 kPa	49.06 ± 1.6
273.15 K, 13429 kPa	49.79 ± 1.6
273.15 K, 13551 kPa	50.25 ± 1.6
274.15 K, 14330 kPa	49.94 ± 1.6
274.15 K, 14438 kPa	49.63 ± 1.6
274.15 K, 14560 kPa	49.37 ± 1.6
275.15 K, 15337 kPa	49.47 ± 1.6
275.15 K, 15444 kPa	49.84 ± 1.6
275.15 K, 15568 kPa	49.47 ± 1.6
276.15 K, 16344 kPa	49.89 ± 1.6
276.15 K, 16452 kPa	49.84 ± 1.6
276.15 K, 16577 kPa	49.73 ± 1.6
277.15 K, 17350 kPa	49.32 ± 1.6
277.15 K, 17457 kPa	49.63 ± 1.6
277.15 K, 17583 kPa	49.99 ± 1.6
278.15 K, 18354 kPa	49.89 ± 1.6
278.15 K, 18462 kPa	50.25 ± 1.6
278.15 K, 18589 kPa	49.47 ± 1.6
279.15 K, 19358 kPa	49.89 ± 1.6
279.15 K, 19465 kPa	49.79 ± 1.6
279.15 K, 19595 kPa	50.15 ± 1.6
280.15 K, 20361 kPa	49.63 ± 1.6
280.15 K, 20468 kPa	50.2 ± 1.6
280.15 K, 20598 kPa	49.99 ± 1.6
281.15 K, 21363 kPa	50.46 ± 1.6
281.15 K, 21470 kPa	49.63 ± 1.6
281.15 K, 21601 kPa	49.89 ± 1.6
282.15 K, 22363 kPa	49.58 ± 1.6
282.15 K, 22472 kPa	50.25 ± 1.6
282.15 K, 22602 kPa	50.05 ± 1.6
283.15 K, 23363 kPa	50.41 ± 1.6
283.15 K, 23473 kPa	50.15 ± 1.6
283.15 K, 23603 kPa	49.94 ± 1.6
284.15 K, 24362 kPa	50.31 ± 1.6
284.15 K, 24472 kPa	49.94 ± 1.6
284.15 K, 24606 kPa	50.25 ± 1.6
285.15 K, 25359 kPa	50.15 ± 1.6
285.15 K, 25470 kPa	50.51 ± 1.6
285.15 K, 25603 kPa	50.25 ± 1.6
286.15 K, 26356 kPa	50.51 ± 1.6
286.15 K, 26466 kPa	50.62 ± 1.6
286.15 K, 26598 kPa	50.2 ± 1.6
287.15 K, 27351 kPa	50.36 ± 1.6
287.15 K, 27461 kPa	50.2 ± 1.6
287.15 K, 27594 kPa	50.36 ± 1.6
288.15 K, 28345 kPa	50.57 ± 1.6
288.15 K, 28454 kPa	50.62 ± 1.6
288.15 K, 28588 kPa	50.41 ± 1.6
289.15 K, 5774 kPa	51.24 ± 1.7
289.15 K, 5835 kPa	49.79 ± 1.6
289.15 K, 29338 kPa	50.46 ± 1.6
289.15 K, 29446 kPa	50.72 ± 1.6
289.15 K, 29581 kPa	51.09 ± 1.7
290.15 K, 6570 kPa	50.62 ± 1.6
290.15 K, 6631 kPa	50.93 ± 1.7
291.15 K, 7365 kPa	51.14 ± 1.7
291.15 K, 7428 kPa	51.19 ± 1.7
292.15 K, 8161 kPa	51.24 ± 1.7
292.15 K, 8224 kPa	51.14 ± 1.7
293.15 K, 8956 kPa	51.4 ± 1.7
293.15 K, 9019 kPa	51.71 ± 1.7
294.15 K, 9752 kPa	51.66 ± 1.7
294.15 K, 9815 kPa	50.83 ± 1.7
295.15 K, 10546 kPa	51.19 ± 1.7
295.15 K, 10610 kPa	51.56 ± 1.7
296.15 K, 11341 kPa	51.19 ± 1.7
296.15 K, 11405 kPa	51.5 ± 1.7
297.15 K, 12135 kPa	51.61 ± 1.7
297.15 K, 12199 kPa	51.35 ± 1.7
298.15 K, 12929 kPa	51.5 ± 1.7
298.15 K, 12993 kPa	51.92 ± 1.7
299.15 K, 13723 kPa	51.66 ± 1.7
299.15 K, 13787 kPa	51.82 ± 1.7
300.15 K, 14517 kPa	51.66 ± 1.7
300.15 K, 14581 kPa	52.08 ± 1.7
301.15 K, 15309 kPa	52.34 ± 1.7
301.15 K, 15374 kPa	51.92 ± 1.7
302.15 K, 16102 kPa	52.08 ± 1.7
302.15 K, 16167 kPa	52.23 ± 1.7
303.15 K, 16894 kPa	52.13 ± 1.7
303.15 K, 16960 kPa	52.49 ± 1.7
304.15 K, 17685 kPa	52.13 ± 1.7
304.15 K, 17752 kPa	52.54 ± 1.7
305.15 K, 18476 kPa	52.75 ± 1.7
305.15 K, 18543 kPa	52.6 ± 1.7
306.15 K, 19267 kPa	52.75 ± 1.7
306.15 K, 19335 kPa	52.8 ± 1.7
307.15 K, 20125 kPa	52.49 ± 1.7
308.15 K, 20848 kPa	52.91 ± 1.7
308.15 K, 20915 kPa	52.8 ± 1.7
309.15 K, 21639 kPa	52.7 ± 1.7
309.15 K, 21704 kPa	53.32 ± 1.7
310.15 K, 22429 kPa	52.86 ± 1.7
310.15 K, 22492 kPa	53.12 ± 1.7
311.15 K, 23217 kPa	53.17 ± 1.7
311.15 K, 23281 kPa	53.69 ± 1.7
312.15 K, 24005 kPa	53.64 ± 1.7
312.15 K, 24068 kPa	53.79 ± 1.7
313.15 K, 24793 kPa	53.53 ± 1.7
313.15 K, 24855 kPa	53.79 ± 1.7
314.15 K, 25579 kPa	53.79 ± 1.7
314.15 K, 25641 kPa	53.43 ± 1.7
315.15 K, 26364 kPa	53.58 ± 1.7
315.15 K, 26427 kPa	54 ± 1.7
316.15 K, 27149 kPa	53.53 ± 1.7
316.15 K, 27212 kPa	54.68 ± 1.8
317.15 K, 27934 kPa	54.42 ± 1.8
317.15 K, 27996 kPa	54.21 ± 1.8
318.15 K, 28719 kPa	54.1 ± 1.8
318.15 K, 28779 kPa	54.78 ± 1.8
